Results taken from US7101896B2, “Pharmaceutical compositions and methods for use” (Targacept, Inc., priority 1999, dated 2006).

The compounds below were run against CNS nicotinic receptors (Rattus norvegicus, UniProt P09483+P12390) (assay: Determination of binding to relevant receptor sites). Conditions: calculated from the IC50 values using the method of Cheng et al.; techniques of U.S. Pat. No. 5,597,919; read-out: Ki (inhibition constant, receptor binding).
Sequence of CNS nicotinic receptors (P09483 31-630): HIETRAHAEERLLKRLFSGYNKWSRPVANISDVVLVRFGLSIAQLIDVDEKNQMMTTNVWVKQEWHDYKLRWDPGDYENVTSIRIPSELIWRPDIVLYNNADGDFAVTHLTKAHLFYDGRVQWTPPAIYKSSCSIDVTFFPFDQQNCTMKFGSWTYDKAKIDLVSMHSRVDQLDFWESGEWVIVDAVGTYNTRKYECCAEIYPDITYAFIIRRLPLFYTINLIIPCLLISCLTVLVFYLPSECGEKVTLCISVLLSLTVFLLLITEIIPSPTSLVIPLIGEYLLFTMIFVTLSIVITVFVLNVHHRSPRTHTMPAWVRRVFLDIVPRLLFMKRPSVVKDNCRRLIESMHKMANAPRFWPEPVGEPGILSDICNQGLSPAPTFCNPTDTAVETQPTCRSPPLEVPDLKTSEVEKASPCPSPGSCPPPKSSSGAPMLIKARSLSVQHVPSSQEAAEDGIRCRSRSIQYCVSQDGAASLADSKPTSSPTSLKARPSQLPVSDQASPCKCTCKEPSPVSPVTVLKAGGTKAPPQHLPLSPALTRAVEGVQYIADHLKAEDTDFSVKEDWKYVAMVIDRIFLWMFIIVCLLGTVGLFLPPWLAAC
Sequence of CNS nicotinic receptors (P12390 25-500): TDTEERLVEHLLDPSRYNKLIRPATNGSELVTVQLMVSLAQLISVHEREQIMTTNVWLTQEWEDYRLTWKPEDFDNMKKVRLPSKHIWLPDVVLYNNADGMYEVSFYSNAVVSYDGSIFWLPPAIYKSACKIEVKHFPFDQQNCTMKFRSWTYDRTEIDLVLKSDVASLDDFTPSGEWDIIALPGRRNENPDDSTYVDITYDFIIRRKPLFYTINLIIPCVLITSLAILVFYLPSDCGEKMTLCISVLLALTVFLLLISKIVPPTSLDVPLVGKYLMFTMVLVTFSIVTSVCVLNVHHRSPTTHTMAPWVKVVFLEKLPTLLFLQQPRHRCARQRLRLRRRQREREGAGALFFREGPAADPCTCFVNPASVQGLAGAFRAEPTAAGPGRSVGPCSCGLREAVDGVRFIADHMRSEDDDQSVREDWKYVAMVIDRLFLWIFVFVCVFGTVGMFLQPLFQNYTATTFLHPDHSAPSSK

Compound	Ki
(S)-3-(4-methoxyphenoxy)-5-(pyrrolidin-2-ylethynyl)pyridine hemigalactarate [Sample No. 10]	33 nM
(S)-3-(3-pyridyloxy)-5-(pyrrolidin-2-ylethynyl)pyridine hemigalactarate [Sample No. 15]	13 nM
(S)-3-(pyrrolidin-2-ylethynyl)-5-(tetrahydropyran-4-yloxy)pyridine hemigalactarate [Sample No. 16]	7 nM
(S)-3-(phenoxyphenyl)-5-(pyrrolidin-2-ylethynyl)pyridine hemigalactarate [Sample No. 9]	530 nM
(S)-3-isopropoxy-5-(pyrrolidin-2-ylethynyl)pyridine hemigalactarate [Sample No. 7]	2 nM
(S)-(E)-3(2-pyrrolidin-2-ylvinyl)pyridine hemigalactarate [Sample No. 2]	306 nM
(E,S)-3-cyclopentyloxy-5-(pyrrolidin-2-ylvinyl)pyridine hemigalactarate [Sample No. 19]	51 nM

Same assay, conditions: read-out: Ki (inhibition constant, receptor binding)

Compound	Ki
Oc1ccc(Oc2cncc(C#C[C@@H]3CCCN3)c2)cc1 [Sample No. 11, (S)-3-(4-hydroxyphenoxy)-5-(pyrrolidin-2-ylethynyl)pyridine]	2 nM
